According to patent US8455004B2, “Primary composition comprising a lipophilic bioactive compound” (Nestec S.A., priority 2000, dated 2013):

Assay: Aqueous-phase analysis of the stability of lycopene (decomposition by light and oxygen)
Assay type: physicochemical
Procedure: It is known that light and oxygen cause lycopene to decompose. An aqueous-phase analysis of the stability of lycopene alone and of lycopene in combination with the whey protein according to the invention was carried out. After one day in the aqueous phase for lycopene alone, only 40% of the lycopene remains, whereas, with the whey, virtually 90% of it, remains.

CC(C)=CCC/C(C)=C/C=C/C(C)=C/C=C/C(C)=C/C=C/C=C(C)/C=C/C=C(C)/C=C/C=C(\C)CCC=C(C)C [lycopene alone, lycopene]
Lycopene remaining after one day (one day): 40%
Lycopene remaining after two days (two days): virtually completely decomposed
